Laboratory results as given in paper PMC6917776, “Discovery of a chemical probe for PRDM9” (Nature Communications, 2019).
“And” between values parts separate entries of the source, which are not always exact repeats. Equal values may be shown once.

What was measured:
PRDM9 = PRDM9 (Homo sapiens, UniProt Q9NQV7); test: PRDM9 cellular assay: H3K4me3 of endogenous histone H3 in HEK293T cells (western blot); format: cell-based; conditions: 20 h, technical replicates
Protocol: HEK293T (kind gift from Sam Benchimol, York University), or MCF7 (ATCC® HTB-22™), cells were plated (12 well plates) and next day co-transfected with 0.1 (HEK293T) or 0.2 (MCF7) µg of GFP-tagged histone H3 and with 0.1 (HEK293T) or 0.2 (MCF7) µg of Flag-tagged PRDM9/PRDM9 catalytic mutant (Y357S) and 0.8 or 0.6 µg of empty vector using JetPRIME® transfection reagent, following manufacturer instructions. After 4 h media was removed and cells were treated with compounds for 20 h. Next day, cells were lysed in lysis buffer (20 mM Tris-HCl pH 8, 150 mM NaCl, 1 mM EDTA, 10 mM MgCl2, 0.5% TritonX-100, 12.5 U mL^−1 benzonase (Sigma), complete EDTA-free protease inhibitor cocktail (Roche)). After 2 min incubation at RT, SDS was added to final 1% concentration. Cell lysates were analyzed in western blot for GFP and H3K4me3 levels. All cell lines were mycoplasma negative, as determined by MycoAlert™ Mycoplasma Detection Kit (Lonza).
Total cell lysates were resolved in 4–12% Bis-Tris Protein Gels (Invitrogen) and transferred in for 1.5 h (80 V) onto PVDF membrane (Millipore) in Tris-Glycine transfer buffer containing 20% MeOH and 0.05% SDS. Blots were blocked for 1 h in blocking buffer (5% milk in PBS) and incubated with primary antibodies anti-GFP (1:3000, Clontech # 632381), anti-H3K4me3 (1:1000, Millipore, #04-745), anti-histone H3 (1:2000, #ab10799, Abcam), anti-Flag (1:5000, #F4799, Sigma) in blocking buffer (5% BSA in 0.1% Tween 20 PBS) overnight at 4 °C. After five washes with 0.1% Tween 20 PBS the blots were incubated with goat-anti rabbit (IR800) and donkey anti-mouse (IR 680) antibodies (1:5000) in Odyssey Blocking Buffer (LiCor) for 1 h at RT and washed five times with 0.1% Tween 20 PBS. The signal was read on an Odyssey scanner (LiCor) at 800 nm and 700 nm and analyzed with Image Studio Ver.5.2 software. […]
endogenous histone H3. (a) Western blot analysis of cellular lysates prepared from HEK293T cells transfected with PRDM9-FLAG and treated with the indicated concentration of compound for 20 h. Mut denotes PRDM9 catalytic mutant (Y357S). (b) Non-linear fit of H3K4me3 fluorescence intensities normalized to intensities of histone H3 is shown. The results are MEAN +/- SEM of n=3 (technical replicates). Source data are provided as a Source Data file .
(1 picture or pasted object on this page, not shown here)

Muscarinic M2 = target: T1, Muscarinic M2 (Homo sapiens, UniProt P08172); test: Eurofins Panlabs panel, radioligand binding; conditions: at 10 µM
T1 construct: NIMH Psychoactive Drug Screening Program, University of North Carolina at Chapel Hill
T1 sequence (P08172 1-466): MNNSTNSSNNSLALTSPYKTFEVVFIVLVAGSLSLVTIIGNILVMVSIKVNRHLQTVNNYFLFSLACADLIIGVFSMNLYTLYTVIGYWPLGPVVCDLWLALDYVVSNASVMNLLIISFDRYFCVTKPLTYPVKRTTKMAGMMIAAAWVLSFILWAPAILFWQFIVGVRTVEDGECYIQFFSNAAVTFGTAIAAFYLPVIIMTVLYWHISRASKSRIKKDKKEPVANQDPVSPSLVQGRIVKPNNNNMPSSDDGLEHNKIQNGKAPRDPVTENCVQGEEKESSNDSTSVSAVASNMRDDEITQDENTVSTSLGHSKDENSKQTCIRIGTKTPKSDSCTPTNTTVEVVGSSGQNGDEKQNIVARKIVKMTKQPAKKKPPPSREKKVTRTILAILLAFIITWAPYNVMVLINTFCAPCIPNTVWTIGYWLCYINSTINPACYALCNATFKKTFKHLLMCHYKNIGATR

PRDM9, sequence (Q9NQV7 whole entry): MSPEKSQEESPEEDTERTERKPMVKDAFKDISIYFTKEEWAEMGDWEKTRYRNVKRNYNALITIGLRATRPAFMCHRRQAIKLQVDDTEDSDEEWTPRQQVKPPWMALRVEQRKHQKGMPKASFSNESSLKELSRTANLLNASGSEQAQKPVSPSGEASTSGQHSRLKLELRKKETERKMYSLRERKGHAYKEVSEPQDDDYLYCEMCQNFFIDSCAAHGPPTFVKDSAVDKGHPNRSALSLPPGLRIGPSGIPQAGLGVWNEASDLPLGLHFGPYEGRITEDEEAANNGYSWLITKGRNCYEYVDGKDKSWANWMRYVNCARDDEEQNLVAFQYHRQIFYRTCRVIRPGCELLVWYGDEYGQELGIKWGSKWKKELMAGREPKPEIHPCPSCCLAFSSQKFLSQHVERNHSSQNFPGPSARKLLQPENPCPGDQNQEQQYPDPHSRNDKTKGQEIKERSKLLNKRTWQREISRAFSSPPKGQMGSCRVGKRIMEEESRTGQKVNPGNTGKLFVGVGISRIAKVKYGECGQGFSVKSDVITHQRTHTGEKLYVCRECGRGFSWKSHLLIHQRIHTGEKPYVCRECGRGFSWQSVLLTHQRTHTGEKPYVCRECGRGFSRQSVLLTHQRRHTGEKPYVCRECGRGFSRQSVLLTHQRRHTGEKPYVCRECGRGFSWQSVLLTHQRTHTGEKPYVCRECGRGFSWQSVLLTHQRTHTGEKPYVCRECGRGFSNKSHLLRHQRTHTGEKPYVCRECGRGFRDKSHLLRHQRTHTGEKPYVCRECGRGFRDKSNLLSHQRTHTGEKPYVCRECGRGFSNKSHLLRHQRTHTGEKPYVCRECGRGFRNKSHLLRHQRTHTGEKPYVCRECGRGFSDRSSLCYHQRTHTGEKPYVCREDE

COc1cc(OC)cc(-c2noc(N3CCN(C)C4(CCN(c5ccnc(C)c5)CC4)C3)n2)c1 [MRK-740]
H3K4me3/endogenousH3 - western blot (PRDM9; 0.256 µM): 93.518 % control and 101.99 % control and 96.0071 % control | H3K4me3/endogenousH3 - western blot (PRDM9; 0.64 µM): 97.4527 % control and 97.7629 % control and 94.1624 % control | H3K4me3/endogenousH3 - western blot (PRDM9; 1.6 µM): 94.826 % control and 91.8208 % control and 93.3575 % control | H3K4me3/endogenousH3 - western blot (PRDM9; 4 µM): 91.0956 % control and 84.7178 % control and 90.9069 % control | H3K4me3/endogenousH3 - western blot (PRDM9; 10 µM): 88.6856 % control and 79.3861 % control and 84.4562 % control | Binding (Muscarinic M2): > 50%
